From patent US9187465B2, “Oxazole tyrosine kinase inhibitors” (Sareum Limited, priority 2007, dated 2015) come the findings set out here.

In assay [1] the target is T1, human FLT4 (Homo sapiens, UniProt P35916).
T1 construct: a construct expressing the human FLT4 (789-1207) with an amino terminal GST tag; host or cells: Sf9 insect cells (baculovirus)
Kind of assay: FLT4 kinase assay (DELFIA enzyme inhibition). It counts as biochemical. Conditions: read-out: FLT4 IC50. The procedure:
A GST-kinase fusion protein of 70 KDa was produced using sf9 baculovirus expression system, with a construct expressing the human FLT4 (789-1207) with an amino terminal GST tag. The protein was purified by affinity chromatography using glutathione-agarose followed by separation on a gel filtration column.
FLT4 enzyme activity is determined using a Dissociation Enhanced Lanthanide Fluorescent Immunoassay (DELFIA) with a peptide substrate derived from the MET (Tyr 1253) peptide […] with a core sequence […].
The amount of phosphorylated peptide produced is detected by means of a phospho-Tyrosine specific Europium-labelled antibody using Time-Resolved Fluorescence at Excitation 360-35 nm and Emission 620-35 nm.
Assay reactions are set up in a 25 uL final volume on a 96 well plate. […] The reaction is allowed to proceed for 30 minutes at room temperature before stopping with 100 uL Stop solution comprising of 100 mM EDTA, 1×BSA blocker in TBS (Perbio) and 0.05% Surfact-Amps20 (Perbio).
The stopped reaction is transferred to a black 96-well Neutravidin-coated plate (Perbio) and incubated for 30 minutes to capture the biotinylated peptide substrate. After washing wells 3 times with 200 uL TBS/T buffer, Anti-Phospho-Tyr-100 antibody labelled with Eu—N1 (Perkin Elmer AD0159) is added to all wells for 60 minutes at room temperature. After a repeat washing step, DELFIA Enhancement solution (Perkin Elmer) is added to all wells for 5 minutes and the fluorescence measured on a plate reader Analyst HT (Molecular Devices).
The % inhibition of the activity is calculated and plotted in order to determine the concentration of test compound required to inhibit 50% of the enzyme activity (IC50).

In assay [2] the target is T2, human Aurora A (Homo sapiens, UniProt O14965).
T2 construct: Histidine tag (N); host or cells: Sf9 insect cells (baculovirus)
T2 sequence (O14965 1-403): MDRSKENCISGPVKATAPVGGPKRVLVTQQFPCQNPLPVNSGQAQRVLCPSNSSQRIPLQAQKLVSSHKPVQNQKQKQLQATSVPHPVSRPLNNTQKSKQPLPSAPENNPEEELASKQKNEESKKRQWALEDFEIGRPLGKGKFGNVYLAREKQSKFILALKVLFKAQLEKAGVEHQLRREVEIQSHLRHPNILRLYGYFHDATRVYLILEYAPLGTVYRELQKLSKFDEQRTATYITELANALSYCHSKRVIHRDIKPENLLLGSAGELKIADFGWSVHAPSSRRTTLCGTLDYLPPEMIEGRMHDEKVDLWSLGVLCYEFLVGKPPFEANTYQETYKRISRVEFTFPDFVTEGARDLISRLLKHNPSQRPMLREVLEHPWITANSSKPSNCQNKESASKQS
Kind of assay: Aurora A kinase assay (DELFIA enzyme inhibition). It counts as biochemical. Conditions: read-out: Aurora A IC50. On the procedure: The protein was purified by one-step affinity chromatography using nickel-agarose […]
Assay reactions are set up in a 25 uL final volume on a 96 well plate. […] The reaction is allowed to proceed for 30 minutes at room temperature before stopping with 100 μL Stop solution comprising of 100 mM EDTA, 1×BSA blocker in TBS (Perbio) and 0.05% Surfact-Amps20 (Perbio).
The stopped reaction is transferred to a black 96-well Neutravidin-coated plate (Perbio) and incubated for 30 minutes to capture the biotinylated peptide substrate. […] After repeating the washing step, the plate is further incubated for one hour with Europium-labelled anti-rabbit antibody (Perkin Elmer AD0105). The wash step is repeated for a final time before DELFIA Enhancement solution (Perkin Elmer) is added to all wells for 5 minutes and the fluorescence measured on a plate reader Analyst HT (Molecular Devices).

The structures appear in SMILES notation.

T1 sequence (P35916 789-1207): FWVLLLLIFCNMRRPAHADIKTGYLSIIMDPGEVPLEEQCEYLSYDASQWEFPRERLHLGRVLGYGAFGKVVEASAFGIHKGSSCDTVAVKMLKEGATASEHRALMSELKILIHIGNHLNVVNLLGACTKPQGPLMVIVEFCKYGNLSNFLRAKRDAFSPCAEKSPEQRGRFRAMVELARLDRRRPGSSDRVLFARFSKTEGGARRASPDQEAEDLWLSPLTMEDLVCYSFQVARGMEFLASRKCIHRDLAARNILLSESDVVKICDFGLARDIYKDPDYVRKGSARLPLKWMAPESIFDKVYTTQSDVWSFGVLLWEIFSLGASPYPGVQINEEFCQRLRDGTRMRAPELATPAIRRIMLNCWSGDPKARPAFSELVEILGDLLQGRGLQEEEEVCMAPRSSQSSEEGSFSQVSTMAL

Regarding `COc1ccc(-c2nc(-c3ccccc3Cl)[nH]c2C(N)=O)cc1` [Example A-2, 2-(2-chlorophenyl)-4-(4-methoxyphenyl)-1H-imidazole-5-carboxamide], the IC50 in assay [1] and in assay [2] was < 100 µM in each case.
Turning to `COc1ccc(-c2nc(-c3ccccc3OC)[nH]c2C(N)=O)cc1` [Example A-3, 2-(2-methoxyphenyl)-4-(4-methoxyphenyl)-1H-imidazole-5-carboxamide], the IC50 in assay [1] and in assay [2] was < 100 µM each time.
On to `COc1ccc(-c2nc(-c3cccc(OC)c3)[nH]c2C(N)=O)cc1` [Example A-4, 2-(3-methoxyphenyl)-4-(4-methoxyphenyl)-1H-imidazole-5-carboxamide], for which the IC50 in assay [1] and in assay [2] was < 100 µM each time.
`COc1ccc(-c2nc(-c3ccc(OC)cc3)c(C(N)=O)[nH]2)cc1` [Example A-5, 2,4-bis(4-methoxyphenyl)-1H-imidazole-5-carboxamide]: the IC50 in assay [1] and in assay [2] was < 100 µM each time.
Take `COc1ccc(-c2nc(-c3ccccc3C)[nH]c2C(N)=O)cc1` [Example A-6, 4-(4-methoxyphenyl)-2-o-tolyl-1H-imidazole-5-carboxamideHH]: the IC50 in assay [1] and in assay [2] was < 100 µM each time.
For the compound `COc1ccc(-c2nc(-c3cccc(C)c3)[nH]c2C(N)=O)cc1` [Example A-7, 4-(4-methoxyphenyl)-2-m-tolyl-1H-imidazole-5-carboxamide], the IC50 in assay [1] and in assay [2] was < 100 µM in each case.
With `COc1ccc(-c2nc(-c3ccc(C)cc3)[nH]c2C(N)=O)cc1` [Example A-8, 4-(4-methoxyphenyl)-2-p-tolyl-1H-imidazole-5-carboxamide], the IC50 in assay [1] and in assay [2] was < 100 µM each time.
With `COc1ccc(-c2nc(-c3c(Cl)cccc3Cl)[nH]c2C(N)=O)cc1` [Example A-10, 2-(2,6-dichlorophenyl)-4-(4-methoxyphenyl)-1H-imidazole-5-carboxamide], the IC50 in assay [1] and in assay [2] was < 100 µM each time.
Turning to `COc1ccc(-c2nc(-c3ccccc3F)[nH]c2C(N)=O)cc1` [Example A-11, 2-(2-fluorophenyl)-4-(4-methoxyphenyl)-1H-imidazole-5-carboxamide], the concentration for half-maximal inhibition (IC50) in assay [1] and in assay [2] was < 100 µM throughout.
On to `COc1ccc(-c2nc(-c3cccnc3)[nH]c2C(N)=O)cc1` [Example A-12, 4-(4-methoxyphenyl)-2-(pyridin-3-yl)-1H-imidazole-5-carboxamide], for which the concentration for half-maximal inhibition (IC50) in assay [1] and in assay [2] was < 100 µM in each case.
In the case of `COc1ccc(-c2nc(-c3c[nH]c4ccccc34)[nH]c2C(N)=O)cc1` [Example A-13, 2-(1H-indol-3-yl)-4-(4-methoxyphenyl)-1H-imidazole-5-carboxamide], the values for the IC50 in assay [1] and in assay [2] were < 10 µM and < 100 µM, respectively.
Taken in the same sequence, the figures for `COc1ccc(-c2nc(-c3c(F)cc(Br)cc3F)[nH]c2C(N)=O)cc1` [Example A-14, 2-(4-bromo-2,6-difluorophenyl)-4-(4-methoxyphenyl)-1H-imidazole-5-carboxamide] were < 100 µM and < 100 µM.
Taken in the same sequence, the figures for `COc1ccc(-c2nc(-c3c(F)cccc3Cl)[nH]c2C(N)=O)cc1` [Example A-15, 2-(2-chloro-6-fluorophenyl)-4-(4-methoxyphenyl)-1H-imidazole-5-carboxamide] were < 100 µM and < 100 µM.
Taken in the same sequence, the figures for `NC(=O)c1[nH]c(-c2c(F)cccc2F)nc1-c1cccs1` [Example A-16, 2-(2,6-difluorophenyl)-4-(thiophen-2-yl)-1H-imidazole-5-carboxamide] were < 10 µM and < 100 µM.
As for `COc1ccc(-c2nc(-c3ccncc3)[nH]c2C(N)=O)cc1` [Example B-1, 4-(4-methoxyphenyl)-2-(pyridin-4-yl)-1H-imidazole-5-carboxamide], the IC50 in assay [1] and in assay [2] was < 100 µM each time.
For the compound `COc1ccc(-c2nc(-c3csc4ccccc34)[nH]c2C(N)=O)cc1` [Example B-3, 2-(benzo[b]thiophen-3-yl)-4-(4-methoxyphenyl)-1H-imidazole-5-carboxamide], the 50% inhibitory concentration (IC50) in assay [1] and in assay [2] was < 100 µM in each case.
As for `COc1ccc(-c2nc(-c3cn(C)c4ccccc34)[nH]c2C(N)=O)cc1` [Example B-4, 4-(4-methoxyphenyl)-2-(1-methyl-1H-indol-3-yl)-1H-imidazole-5-carboxamide], the IC50 in assay [1] and in assay [2] was < 100 µM each time.
As for `COc1ccc(-c2nc(-c3c(F)cccc3F)[nH]c2C(N)=O)cc1` [Example B-5, 2-(2,6-difluorophenyl)-4-(4-methoxyphenyl)-1H-imidazole-5-carboxamide], the IC50 in assay [1] and in assay [2] was < 100 µM each time.
Take `NC(=O)c1[nH]c(-c2c(F)cccc2F)nc1-c1ccccn1` [Example C-1, 2-(2,6-difluorophenyl)-4-(pyridin-2-yl)-1H-imidazole-5-carboxamide]: the IC50 in assay [1] and in assay [2] was < 100 µM in each case.
`COc1ccc(-c2oc(-c3c(F)cccc3F)nc2C(N)=O)cc1` [Example E-2, 2-(2,6-difluorophenyl)-5-(4-methoxyphenyl)oxazole-4-carboxamide]: the half-inhibitory concentration (IC50) in assay [1] was < 10 µM; in assay [2], < 100 µM.
`CN(C)c1ccc(-c2oc(-c3c(F)cccc3F)nc2C(N)=O)cc1` [Example F-3, 2-(2,6-difluorophenyl)-5-(4-(dimethylamino)phenyl)oxazole-4-carboxamide]: the IC50 was < 10 µM in assay [1] and < 100 µM in assay [2].
Taken in the same sequence, the figures for `NC(=O)c1nc(-c2c(F)cccc2F)oc1-c1ccsc1` [Example F-5, 2-(2,6-difluorophenyl)-5-(thiophen-3-yl)oxazole-4-carboxamide] were < 10 µM and < 100 µM.
On to `NC(=O)c1nc(-c2c(F)cccc2F)oc1-c1ccncc1` [Example F-8, 2-(2,6-difluorophenyl)-5-(pyridin-4-yl)oxazole-4-carboxamide], for which the IC50 in assay [1] and in assay [2] was < 10 µM each time.
With `NC(=O)c1nc(-c2c(F)cccc2F)oc1-c1cccc2cccnc12` [Example F-37, 2-(2,6-difluorophenyl)-5-(quinolin-8-yl)oxazole-4-carboxamide], the IC50 in assay [2] is < 100 µM.
The same measure, in the same setting: the figure for `COc1ccc(-c2oc(-c3ccccc3C(N)=O)nc2C(N)=O)cc1` [Example M-6, 2-(2-carbamoylphenyl)-5-(4-methoxyphenyl)oxazole-4-carboxamide] is < 100 µM.
On the same count and under the same terms, the figure for `COc1ccc(-c2oc(-c3ccc(C(F)(F)F)cc3)nc2C(N)=O)cc1` [Example N-4, 5-(4-methoxyphenyl)-2-(4-(trifluoromethyl)phenyl)oxazole-4-carboxamide] is < 100 µM; for `COc1ccc(-c2oc(-c3ccc(C(F)(F)F)cc3F)nc2C(N)=O)cc1` [Example N-5, 2-(2-fluoro-4-(trifluoromethyl)phenyl)-5-(4-methoxyphenyl)oxazole-4-carboxamide] it is < 100 µM.
Turning to `COc1ccc(-c2oc(-c3cc(C(F)(F)F)ccc3F)nc2C(N)=O)cc1` [Example N-6, 2-(2-fluoro-5-(trifluoromethyl)phenyl)-5-(4-methoxyphenyl)oxazole-4-carboxamide], the IC50 in assay [2] was < 100 µM.
Turning to `COc1ccc(-c2oc(-c3ccc(C)cc3)nc2C(N)=O)cc1` [Example N-9, 5-(4-methoxyphenyl)-2-p-tolyloxazole-4-carboxamide], the concentration for half-maximal inhibition (IC50) in assay [2] was < 100 µM.
The same measure, in the same setting: the figure for `COc1ccc(-c2oc(Nc3c(F)cccc3F)nc2C(N)=O)cc1` [Example R-9, 2-(2,6-difluorophenylamino)-5-(4-methoxyphenyl)oxazole-4-carboxamide] is < 10 µM.

One may read the IC50 as the concentration at which inhibition is half-maximal.
